# Test results: PubChem BioAssay AID2060908 (Molecular Pharmacology Branch, DTP, NCI, 2025)
# Test system: 186277-243-T-J2-PDC complex spheroids, viability
# Test: Anticancer human tumor 186277-243-T-J2-PDC patient-derived colon adenocarcinoma cell line growth inhibition [RAS]
# Conditions: for IC50: curve of first compound; for viability, T/C: stronger effect = lower value
# Outline: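 Agents were tested in combination matrices in half-log decrements from a top concentration at or near clinical Cmax (10 microM if undetermined). Targets were multi-cell spheroids of tumour lines plus HUVEC and MSC stromal cells.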
# [1] = second compound 0.000949 µM, first compound 0.0316 µM
# [2] = second compound 0.000949 µM, first compound 0.1 µM
# [3] = second compound 0.000949 µM, first compound 0.316 µM
# [4] = second compound 0.000949 µM, first compound 1 µM
# [5] = second compound 0.000949 µM, first compound 3.16 µM
# [6] = second compound 0.000949 µM, first compound 10 µM
# [7] = second compound 0.003 µM, first compound 0.0316 µM
# [8] = second compound 0.003 µM, first compound 0.1 µM
# [9] = second compound 0.003 µM, first compound 0.316 µM
# [10] = second compound 0.003 µM, first compound 1 µM
# [11] = second compound 0.003 µM, first compound 3.16 µM
# [12] = second compound 0.003 µM, first compound 10 µM
# [13] = second compound 0.00949 µM, first compound 0.0316 µM
# [14] = second compound 0.00949 µM, first compound 0.1 µM
# [15] = second compound 0.00949 µM, first compound 0.316 µM
# [16] = second compound 0.00949 µM, first compound 1 µM
# [17] = second compound 0.00949 µM, first compound 3.16 µM
# [18] = second compound 0.00949 µM, first compound 10 µM
# [19] = second compound 0.03 µM, first compound 0.0316 µM
# [20] = second compound 0.03 µM, first compound 0.1 µM
# [21] = second compound 0.03 µM, first compound 0.316 µM
# [22] = second compound 0.03 µM, first compound 1 µM
# [23] = second compound 0.03 µM, first compound 3.16 µM
# [24] = second compound 0.03 µM, first compound 10 µM
# [25] = second compound 0.0949 µM, first compound 0.0316 µM
# [26] = second compound 0.0949 µM, first compound 0.1 µM
# [27] = second compound 0.0949 µM, first compound 0.316 µM
# [28] = second compound 0.0949 µM, first compound 1 µM
# [29] = second compound 0.0949 µM, first compound 3.16 µM
# [30] = second compound 0.0949 µM, first compound 10 µM
# [31] = second compound 0.3 µM, first compound 0.0316 µM
# [32] = second compound 0.3 µM, first compound 0.1 µM
# [33] = second compound 0.3 µM, first compound 0.316 µM
# [34] = second compound 0.3 µM, first compound 1 µM
# [35] = second compound 0.3 µM, first compound 3.16 µM
# [36] = second compound 0.3 µM, first compound 10 µM
# 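Also: spheroids exposed to compounds for 7 days before viability read.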
compound,measurement,setting,value
CC1(O)CCCC1n1c(=O)c(C(F)F)cc2cnc(NC3CCN(S(C)(=O)=O)CC3)nc21 (stereo unspecified) + CCn1c(-c2cc(N3CCN(C)CC3)cnc2C(C)OC)c2c3cc(ccc31)-c1csc(n1)CC(NC(=O)C1CC1C)C(=O)N1CCCC(N1)C(=O)OCC(C)(C)C2,IC50,second compound 0.000949 µM,3.79 µM
same,IC50,second compound 0.003 µM,1.08 µM
same,IC50,second compound 0.00949 µM,< 0.0316 µM
same,IC50,second compound 0.03 µM,< 0.0316 µM
same,IC50,second compound 0.0949 µM,< 0.0316 µM
same,IC50,second compound 0.3 µM,< 0.0316 µM
same,"viability, T/C",[1],124%
same,"viability, T/C",[2],104%
same,"viability, T/C",[3],108%
same,"viability, T/C",[4],86.7%
same,"viability, T/C",[5],61.8%
same,"viability, T/C",[6],1.35%
same,"viability, T/C",[7],116%
same,"viability, T/C",[8],107%
same,"viability, T/C",[9],60.8%
same,"viability, T/C",[10],55.4%
same,"viability, T/C",[11],36.9%
same,"viability, T/C",[12],0.72%
same,"viability, T/C",[13],47.4%
same,"viability, T/C",[14],41%
same,"viability, T/C",[15],23.6%
same,"viability, T/C",[16],20.1%
same,"viability, T/C",[17],14%
same,"viability, T/C",[18],0.4%
same,"viability, T/C",[19],15.2%
same,"viability, T/C",[20],11.5%
same,"viability, T/C",[21],10.6%
same,"viability, T/C",[22],9.98%
same,"viability, T/C",[23],7.39%
same,"viability, T/C",[24],0.34%
same,"viability, T/C",[25],9.76%
same,"viability, T/C",[26],7.17%
same,"viability, T/C",[27],6.71%
same,"viability, T/C",[28],6.53%
same,"viability, T/C",[29],5.94%
same,"viability, T/C",[30],0.31%
same,"viability, T/C",[31],6.48%
same,"viability, T/C",[32],6.07%
same,"viability, T/C",[33],5.61%
same,"viability, T/C",[34],5.93%
same,"viability, T/C",[35],5.05%
same,"viability, T/C",[36],0.34%
CCC(CC)c1cc(NC2CCC(N)C2)n2nccc2n1 (stereo unspecified) + CCn1c(-c2cc(N3CCN(C)CC3)cnc2C(C)OC)c2c3cc(ccc31)-c1csc(n1)CC(NC(=O)C1CC1C)C(=O)N1CCCC(N1)C(=O)OCC(C)(C)C2,IC50,second compound 0.000949 µM,1.84 µM
same,IC50,second compound 0.003 µM,1.73 µM
same,IC50,second compound 0.00949 µM,0.419 µM
same,IC50,second compound 0.03 µM,< 0.0316 µM
same,IC50,second compound 0.0949 µM,< 0.0316 µM
same,IC50,second compound 0.3 µM,< 0.0316 µM
same,"viability, T/C",[1],123%
same,"viability, T/C",[2],115%
same,"viability, T/C",[3],109%
same,"viability, T/C",[4],101%
same,"viability, T/C",[5],4.75%
same,"viability, T/C",[6],0.22%
same,"viability, T/C",[7],99.4%
same,"viability, T/C",[8],100%
same,"viability, T/C",[9],107%
same,"viability, T/C",[10],91.9%
same,"viability, T/C",[11],3.89%
same,"viability, T/C",[12],0.17%
same,"viability, T/C",[13],55.5%
same,"viability, T/C",[14],54.6%
same,"viability, T/C",[15],57.5%
same,"viability, T/C",[16],33%
same,"viability, T/C",[17],3.19%
same,"viability, T/C",[18],0.17%
same,"viability, T/C",[19],15.8%
same,"viability, T/C",[20],17%
same,"viability, T/C",[21],18.1%
same,"viability, T/C",[22],9.82%
same,"viability, T/C",[23],3.01%
same,"viability, T/C",[24],0.19%
same,"viability, T/C",[25],8.36%
same,"viability, T/C",[26],8.25%
same,"viability, T/C",[27],9.17%
same,"viability, T/C",[28],5.58%
same,"viability, T/C",[29],2.44%
same,"viability, T/C",[30],0.29%
same,"viability, T/C",[31],7.09%
same,"viability, T/C",[32],6.68%
same,"viability, T/C",[33],6.45%
same,"viability, T/C",[34],4.66%
same,"viability, T/C",[35],2.73%
same,"viability, T/C",[36],0.31%
CCN1CCN(Cc2ccc(Nc3ncc(F)c(-c4cc(F)c5nc(C)n(C(C)C)c5c4)n3)nc2)CC1 + CCn1c(-c2cc(N3CCN(C)CC3)cnc2C(C)OC)c2c3cc(ccc31)-c1csc(n1)CC(NC(=O)C1CC1C)C(=O)N1CCCC(N1)C(=O)OCC(C)(C)C2,IC50,second compound 0.000949 µM,> 1 µM
same,IC50,second compound 0.003 µM,0.357 µM
same,IC50,second compound 0.00949 µM,0.00365 µM
same,IC50,second compound 0.03 µM,< 0.00316 µM
same,IC50,second compound 0.0949 µM,< 0.00316 µM
same,IC50,second compound 0.3 µM,< 0.00316 µM
same,"viability, T/C","second compound 0.000949 µM, first compound 0.00316 µM",102%
same,"viability, T/C","second compound 0.000949 µM, first compound 0.01 µM",121%
same,"viability, T/C",[1],140%
same,"viability, T/C",[2],149%
same,"viability, T/C",[3],121%
same,"viability, T/C",[4],76.6%
same,"viability, T/C","second compound 0.003 µM, first compound 0.00316 µM",105%
same,"viability, T/C","second compound 0.003 µM, first compound 0.01 µM",111%
same,"viability, T/C",[7],107%
same,"viability, T/C",[8],86.1%
same,"viability, T/C",[9],53%
same,"viability, T/C",[10],32%
same,"viability, T/C","second compound 0.00949 µM, first compound 0.00316 µM",50.8%
same,"viability, T/C","second compound 0.00949 µM, first compound 0.01 µM",43.8%
same,"viability, T/C",[13],32.7%
same,"viability, T/C",[14],22.1%
same,"viability, T/C",[15],16.8%
same,"viability, T/C",[16],12.3%
same,"viability, T/C","second compound 0.03 µM, first compound 0.00316 µM",14.5%
same,"viability, T/C","second compound 0.03 µM, first compound 0.01 µM",13.7%
same,"viability, T/C",[19],11.9%
same,"viability, T/C",[20],9.88%
same,"viability, T/C",[21],9.46%
same,"viability, T/C",[22],8.2%
same,"viability, T/C","second compound 0.0949 µM, first compound 0.00316 µM",7.73%
same,"viability, T/C","second compound 0.0949 µM, first compound 0.01 µM",7.37%
same,"viability, T/C",[25],6.72%
same,"viability, T/C",[26],6.74%
same,"viability, T/C",[27],7.64%
same,"viability, T/C",[28],7%
same,"viability, T/C","second compound 0.3 µM, first compound 0.00316 µM",6.2%
same,"viability, T/C","second compound 0.3 µM, first compound 0.01 µM",5.86%
same,"viability, T/C",[31],6.14%
same,"viability, T/C",[32],6.13%
same,"viability, T/C",[33],6.52%
same,"viability, T/C",[34],6.25%
